# According to patent publication US9945862B2, “Biomarkers for predicting and assessing responsiveness of thyroid and kidney cancer subjects to lenvatinib compounds” (Eisai R&D Management Co., Ltd., priority 2011, dated 2018):
# “Also recorded” adds a separate entry of the source.
# Test system: differentiated thyroid cancer patients
# Experiment: Progression free survival of E7080-treated DTC patients (Logrank test, Cox proportional hazards model with or without PK covariate)
# Assay type: in vivo, human
# Conditions: patients with mutations in NRAS alone or in either NRAS or KRAS vs wild type for NRAS or KRAS
# Method: The period during which a patient takes E7080 was artificially divided into different Cycles for ease of evaluation and tracking. Patients received E7080 at a dose of 24 mg oral once daily in 28 day cycles. For analysis purposes, assessments of clinical outcomes were performed at the time of the 9 month and at 14 month minimum follow-up. For the E7080 Thyroid Cancer trial, each Cycle is 28 days (4 weeks) so Day 1-28 is cycle 1; Day 29 is Day 1 of Cycle 2; and Day 57 is Day 1 of Cycle 3. Blood samples were collected for pharmacokinetic (PK) analysis on Cycle 1 Days 1 and 8, Cycle 2 Day 1, and Cycle 3 Day 1. A total of 9 samples per patient were collected as follows: Cycle 1 Day 1: immediately prior to the dose of E7080, and at 0.5 and 2 hours following the first dose of E7080 (post-dose); Cycle 1 Day 8: immediately prior to the dose of E7080; Cycle 2 Day 1: immediately prior to the dose of E7080, 0.5 and 2 hours post-dose; Cycle 3 Day 1: immediately prior to the dose of E7080 and 2 hours post-dose. For analysis of progression free survival, PK parameter was used as a covariate in Cox proportional hazards model. […]
# The association of gene mutations with progression free survival of treated patients was analyzed first by performing Logrank test and then using Cox proportional hazards model with or without covariates. […]
compound,measurement,value
"COc1cc2nccc(Oc3ccc(NC(=O)NC4CC4)c(Cl)c3)c2cc1C(N)=O [E7080, 4-(3-chloro-4-(cyclopropylaminocarbonyl)aminophenoxy)-7-methoxy-6-quinolinecarboxamide]","Progression free survival, Logrank test",better progression free survival; also recorded: better PFS
